Patent US6696621B2, “Selectable marker in plants” (Paradigm Genetics, Inc., priority 2001, dated 2004)

B1: NRG protein: novel nourseothricin N-acetyltransferase, amino acid sequence of SEQ ID NO. 1; confers resistance to nourseothricin (protein)
chain: MTTLDDTAYRYRTSVPGDAEAIEALDGSFTTDTVFRVTATGDGFTLREVPVDPPLTKVFPDDESDDESDDGEDGDPDSRTFVAYGDDGDLAGFVVVSYSGWNRRLTVEDIEVAPEHRGHGVGRALMGLATEFARERGAGHLWLEVTNVNAPAIHAYRRMGFTLCGLDTALYDGTASDGEQALYMSMPCP
modifications: Novel protein conferring resistance to the antibiotic known as nourseothricin

Key:
[1] = tested on: rice callus, derived from immature rice embryos of the variety TP309; test: Dose response of clonNAT on rice callus growth and survival; format: cell-based; conditions: 26° C. in the dark
Procedure: a) Dose response. For selection of transgenic calli based on resistance to clonNAT following Agrobacterium-mediated transformation of rice callus material, a dose response experiment is made to determine the concentration of clonNAT in callus growth medium in order to inhibit the growth of rice callus, or to kill the rice cells. Growth media (GM) used for rice callus comprise the following basic components: N6 salts (Duchefa) 3.95 g/l; B5 vitamins (Duchefa) 112 mg/l; proline (Duchefa) 500 mg/l; glutamine (Duchefa) 500 mg/l; casein hydrolysate (Duchefa) 500 mg/l. […]
Several pieces of rice callus, derived from immature rice embryos of the variety TP309 (National Small Grain Collection, USDA, ARS, Aberdeen, Id.) are put on these plates, the plates are incubated at 26° C. in the dark, and survival of the embryos and proliferation of the embryo cells are observed every day. Based on the survival rate of the embryos on the media plates containing different concentrations of clonNAT, a useful concentration of clonNAT for selection of transgenic rice is determined to be within a range of about 20 to about 1000 mg/l or more, preferably about 200 mg/l or less. […]

[2] = tested on: wildtype Arabidopsis thaliana; test: Dose response of clonNAT sprayed on wildtype Arabidopsis thaliana seedlings; format: in vivo; conditions: sprayed on three consecutive days with 0.005% Silwet L-77; assessed 36 hours after last spray
Procedure: a) Dose response. The selection conditions for plants that are transgenic with the nrg gene are determined in a dose response experiment. From about 2000 to 3000 wildtype Arabidopsis thaliana seeds per pot are sown in 5″×5″ (13 cm×13 cm) soil pots. When the first true leaves of the seedlings have emerged after approximately 7 days, the seedlings are sprayed with a hand-held sprayer until all leaf material is completely wet on three consecutive days with a solution of 0.005% Silwet L-77 (50 ul/l) in water and variable concentrations of clonNAT (1, 5, 10, 20, 50, 100, 250, 500 mg/l). The results are assessed 36 hours after the last spray. A useful range of concentration of clonNAT for selection of transgenic Arabidopsis plants (as assessed as concentrations that kill non-transgenic Arabidopsis plants after applying the described sprayings) is determined within a range of about 20 to about 1000 mg/l or more, preferably about 200 mg/l or less.

[3] = Ability of NRG protein to impart resistance to nourseothricin; conditions: NRG protein with aspartate instead of glycine at position 70

Molecule | preferred concentration of clonNAT for selection of transgenic rice ([1]; callus growth medium plates, based on survival rate of embryos) [mg/L] | fate of embryo-derived rice callus on clonNAT-containing medium plates ([1]; clonNAT 200 mg/l selection plates, after 4-5 weeks) | preferred concentration of clonNAT for selection of transgenic Arabidopsis plants [2] [mg/L] | ability to impart resistance to the nourseothricin antibiotic [3]
2-[4-O-Carbamoyl-2-deoxy-2-(3,6-diaminohexan-amido)-B-D-gulopyranoslamino)-3,3a,5 ,6,7,7a-hexahydro-5-hydroxy-4H-imidazo[4,5-c]pyridin-4one dihydrogensulphate [clonNAT] | ≤ 200 | died | ≤ 200 | 
B1 |  |  |  | retains the ability to impart resistance
